Common to all, as to type: physicochemical
Data set [1] can be described thus: storage stability in aqueous suspensions and in solid form under humid conditions. The note with it: aqueous suspensions (such as SC-formulations) and storage in solid form under humid conditions; compared with amorphous material or modification I.
Data set [2] can be described thus: thermodynamic stability (DSC, solubility tests and other experiments). To be noted: compared with modification A. The protocol:
(§1) The resulting change of particle sizes could lead to a change of the stability of the formulated suspension.
Characteristic for modification C is also the thermogram in differential scanning calorimetry (“DSC”) (see FIG. 3). It has an endothermic peak typically in the range from 130° C. to 142° C., but this will depend on purity. For example, crystal modification C in pure form has typically a peak temperature of 141° C. and an endothermic signal typically around 83 J/g. This thermogram is characteristically different from the thermograms of modifications A and B. Modification A has an endothermic peak at about 112° C. and an endothermic signal of 76; modification B has a peak at about 128° C. and a signal of 90 J/g (see PCT/EP2006/00898, FIGS. 5-6). All measurements were carried out on a Metier Toledo 820 DSC in a closed, but not sealed, pan with a heating rate of 10 K/minute. The typical sample quantity is about 5 mg.

A further data set in a line: water solubility. The note with it: over relevant temperature ranges; compared with modification A.
From the text: as §1

Each structure is given as a SMILES string.

Take `CC(C)C1C2CCC1c1c(NC(=O)c3cn(C)nc3C(F)F)cccc12` (mixture of isomers) [monohydrate in form A, racemic anti-3-difluoromethyl-1-methyl-1H-pyrazole-4-carboxylic acid (9-isopropyl-1,2,3,4-tetrahydro-1,4-methano-naphthalen-5-yl)-amide]: in data set [1], the storage stability entry is “much more stable under those circumstances compared with amorphous material or with the modification I”.
For `CC(C)C1C2CCC1c1c(NC(=O)c3cn(C)nc3C(F)F)cccc12` (mixture of isomers) [modification C, racemic syn-3-difluoromethyl-1-methyl-1H-pyrazole-4-carboxylic acid (9-isopropyl-1,2,3,4-tetrahydro-1,4-methano-naphthalen-5-yl)-amide], in data set [2], the thermodynamic stability result was “substantially better thermodynamic stability than modification A”. Moreover, the water solubility entry in “water solubility” is “lower than the water solubility of modification A”.

The record behind these values is patent US8580835B2, “Solid forms of a microbiocide” (Syngenta Crop Protection, LLC, priority 2007, dated 2013).
